Assay results published in patent publication US9688743B2, “Optical biosensors” (Carnegie Mellon University, priority 2007, dated 2017).

Legend:
living NIH3T3 cells = test: Entry of fluorogen controls into living cells; format: cell-based, mouse
[1] = comparison value; cited from earlier work
JAR200 cells = test: Effect of fluorogens on yeast cell growth; format: cell-based; details: 500 nM fluorogen, 30° C.
Protocol: FIG. 17 is a graph depicting the effect of fluorogens on yeast cell growth. JAR200 cells are inoculated at ˜10^6 cells/ml into 35 ml SD+CAA medium in 125 ml baffled flasks and allowed to grow at 30° C. at 300 RPM for 2 hours prior to addition of fluorogens at the indicated concentrations. One ml samples are removed at indicated time points, and growth halted by addition of 75 μl of 300 mM NaN3 prior to reading absorbance. Doubling time of about 1.9 hrs is unchanged by most fluorogen treatments. For 500 nM MG-ester, the doubling time is about 2.8 hrs; and for 500 nM MG, the doubling time is over 24 hrs.

Row | Compound | doubling time (JAR200 cells) | further results
1 | 2-[(1-(18-amino-4,9-diaza-12,15-dioxa-5,8-dioxo-octadecanyl)-4(111)-quinolinylidene)methyl-3-(3-sulfopropyl)benzothiazolinium]trifluoroacetate [TO1-2p] | – | entry into living cells (living NIH3T3 cells): did not enter living NIH3T3 cells
2 | O=C(O)c1ccccc1-c1c2ccc(=O)c([As]3SCCS3)c-2oc2c([As]3SCCS3)c(O)ccc12 [F1AsH-EDT2] | – | fluorescence increase on binding cognate tetracysteine peptide [1]: 50,000 fold
3 | CN(C)c1ccc(C(=C2C=CC(=[N+](C)C)C=C2)c2ccccc2)cc1 [MG, malachite green, reference compound] | over 24 hrs | –
4 | CCOC(=O)CCCc1ccc([C+](c2ccc(N(C)C)cc2)c2ccc(N(C)C)cc2)cc1.[Cl-] [MG-ester, Methylium, bis[4-(dimethylamino)phenyl](4-(3-carboethoxypropyl)phenyl)-chloride] | about 2.8 hrs | –
